Assays:
[1] = biological target: T1, Candida antarctica lipase (CAL-B, Chirazyme L-2) (Moesziomyces antarcticus, UniProt P41365); experiment: Lipase-catalyzed transesterification with n-hexanol in toluene; type: biochemical; settings: for equilibrium constant (value in brackets): transesterification of ethyl esters with n-hexanol, calculated according to Anthonsen et al.
T1 construct: purchased Boehringer Mannheim, Penzberg, Germany
T1 sequence (P41365 26-342): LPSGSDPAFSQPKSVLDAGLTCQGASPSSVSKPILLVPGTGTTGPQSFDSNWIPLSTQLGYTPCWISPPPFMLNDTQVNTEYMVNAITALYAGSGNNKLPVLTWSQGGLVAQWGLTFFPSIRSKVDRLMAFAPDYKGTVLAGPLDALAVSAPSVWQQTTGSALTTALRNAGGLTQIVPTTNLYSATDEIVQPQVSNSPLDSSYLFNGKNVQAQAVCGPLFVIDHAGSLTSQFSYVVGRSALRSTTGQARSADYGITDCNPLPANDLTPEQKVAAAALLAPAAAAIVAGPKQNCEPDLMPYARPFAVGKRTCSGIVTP
Experimental: (§1) If not described otherwise, the ^1 H-NMR spectra were recorded at 250.1 and 500.1 MHz and the ^13 C-NMR spectra at 62.9 and 125.7 MHz in CDCl3 using tetramethylsilane as an internal standard. In cases in which both the racemate and the enatiomeric pure compounds were synthesized, the racemate was used for the full characterization of the compound. […] The gas-chromatography (=GC) analyses were carried out with an Optima 5 column (25 m×0.25 mm; Macherey & Nagel, Duren, Germany) for the determination of the conversion and purity and with a heptakis-(2,3-di-O-acetyl-6-O-TBDMS) -β-cyclodextrin column (25 m×0.25 mm, Prof. W. A. Konig, University of Hamburg, Germany) for the determination of the enantiomeric excess. The immobilized lipase used was Candida antarctica lipase (Chirazyme L-2, c.-f., C2, 5000 U/g) from Boehringer Mannheim, Penzberg, Germany, if not described otherwise. The absolute configuration of the biotransformation products was determined by means of comparison with optically pure standards, which were prepared from the commercially obtainable optically pure carboxylic acids. The enantiomeric excess was calculated by comparison with literature values. The enantioselectivity was determined using the formula E=[ln{(1-c)×(1-ees)}]/[ln{(1-c)×(1+ees)}],
Lipase-catalyzed transesterification: 100 μl of the vinyl esters (0.52 mmol) and 560 μl of n-hexanol (4.49 mmol) were […] stirrer. The reaction was started by addition of 100 mg of CAL-B lipase (500 U) (see Scheme II). Samples were taken from the reaction, diluted with toluene and the lipase was removed by means of centrifugation. The samples were analyzed by GC using the Optima 5 column. After ending the reaction by filtration, product and unreacted substrate were purified by flash chromatography. The enantiomeric purities were determined by means of the specific rotation. In the case of the substrates (±)-3, (±) -4 and (±) -6, the optical purity was additionally determined by means of chiral GC. The ethyl esters were correspondingly reacted as a comparison experiment (see Scheme III). The hydrolysis of the ethyl esters was carried out as a further comparison experiment (see Scheme III).

[2] = biological target: T1, Candida antarctica lipase (CAL-B, Chirazyme L-2); experiment: Hydrolysis of the ethyl esters with pH-statting; type: biochemical; settings: hydrolysis in phosphate buffer 50 mM, pH 7.5, 40° C., calculated according to Chen et al.
Experimental: as §1
The hydrolysis of the ethyl esters was carried out with pH-statting. In general, 1 mmol of substrate (6-8) was taken up at 40° C. in 20 ml of phosphate buffer (50 mM, pH 7.5). 200 mg of CAL-B (1000 U) were added at the start of the reaction. The pH was kept constant through the reaction using 0.1 N NaOH. After consumption of base indicated a marked conversion of the substrate, unused substrate was removed by means of extraction with heptane. […] The organic phases were dried using Na2 SO4 and the enantiomeric excess was determined for all compounds by means of the specific rotation and for (±)-6 additionally by means of chiral GC.

lipase CAL-B = biological target: T2, lipase CAL-B (Moesziomyces antarcticus, UniProt P41365); experiment: Lipase-catalyzed transesterification with methanol in toluene; type: biochemical, Candida antarctica; settings: 40° C., 5 hours, calculated from conversion and eep
T2 construct: purchased Boehringer Mannheim
T2 sequence (P41365 26-342): T1 sequence (P41365 26-342)
Experimental: The racemic ibuprofen vinyl ester (209 mg, 0.90 mmol) and methanol (240 mg, 7.5 mmol) were disolved in 8 ml toluene and stirred at 40° C. The reaction was started by adding 416 mg of lipase CAL-B (L-2, c.f., C2, lyo.; Boehringer Mannheim). After 5 hours, the reaction was completed by filtering off the lipase, and the reaction mixture was analyzed by gas chromatography in a chiral column (2,3 di-O-methyl-6-O-pentyl-ε-cyclodextrin). The product and unreacted substrate were purified by flash chromatography on silica gel (developer: ligroin/diethyl ether 35:1). Conversion (GC): 40.5%; Yields: ibuprofen methyl ester 64 mg (0.29 mmol; 32%), eep =76% (GC); ibuprofen vinyl ester 98 mg (0.42 mmol, 47%), ees =[…] (calculated from conversion and eep). An E value of 12 is calculated from conversion and eep.

[3] = transesterification with n-hexanol in toluene, 40° C., CAL-B, calculated according to Chen et al.

Row | SMILES | E (enantioselectivity) [1, 3] | E (enantioselectivity) ([1]; transesterification with n-hexanol in toluene at room temperature (about 23° C.)) | equilibrium constant (value in brackets) ([1]; 40° C.) | E (enantioselectivity) [2] | E value (lipase CAL-B)
1 | C=COC(=O)C(CC)c1ccccc1 (racemic) [(±)-3, Vinyl (±)-2-phenylbutyrate] | > 100 | – | – | – | –
2 | CCOC(=O)C(CC)c1ccccc1 (racemic) [(±)-6, Ethyl (±)-2-phenylbutyrate] | 5.7 | – | 110 | 3.7 | –
3 | CCOC(=O)C(C)c1ccccc1 (racemic) [(±)-7, Ethyl (±)-2-phenylpropionate] | 6.8 | – | 123 | 3.5 | –
4 | C=COC(=O)C(C)c1ccc(CC(C)C)cc1 (racemic) [ibuprofen vinyl ester] | – | – | – | – | 12

Next, values leading:

Row | E (enantioselectivity) [1, 3] | E (enantioselectivity) ([1]; transesterification with n-hexanol in toluene at room temperature (about 23° C.)) | equilibrium constant (value in brackets) ([1]; 40° C.) | E (enantioselectivity) [2] | E value (lipase CAL-B) | SMILES
5 | 26 | – | – | – | – | C=COC(=O)C(C)c1ccccc1 (racemic) [(±)-4, Vinyl (±)-2-phenylpropionate]
6 | 13 | 23 | – | – | – | C=COC(=O)CC(C)c1ccccc1 (racemic) [(±)-5, Vinyl (±)-3-phenylbutyrate]
7 | 4.9 | – | 135 | 9 | – | CCOC(=O)CC(C)c1ccccc1 (racemic) [(±)-8, Ethyl (±) -3-phenylbutyrate]
